Experiments:
[1] = biological target: T1, inducible nitric oxide synthase (iNOS) (Mus musculus, UniProt P29477); assay: iNOS inhibitory activity in LPS-induced RAW264.7 macrophages (nitrite, Griess reagent); type: cell-based; conditions: isolated compounds, Table S7, RAW264.7 cells, read-out: Inhibition (IC50) iNOS (converted)
T1 construct: endogenous in cells; host or cells: RAW264.7 mouse macrophages, LPS-induced
T1 sequence (P29477 1-1144): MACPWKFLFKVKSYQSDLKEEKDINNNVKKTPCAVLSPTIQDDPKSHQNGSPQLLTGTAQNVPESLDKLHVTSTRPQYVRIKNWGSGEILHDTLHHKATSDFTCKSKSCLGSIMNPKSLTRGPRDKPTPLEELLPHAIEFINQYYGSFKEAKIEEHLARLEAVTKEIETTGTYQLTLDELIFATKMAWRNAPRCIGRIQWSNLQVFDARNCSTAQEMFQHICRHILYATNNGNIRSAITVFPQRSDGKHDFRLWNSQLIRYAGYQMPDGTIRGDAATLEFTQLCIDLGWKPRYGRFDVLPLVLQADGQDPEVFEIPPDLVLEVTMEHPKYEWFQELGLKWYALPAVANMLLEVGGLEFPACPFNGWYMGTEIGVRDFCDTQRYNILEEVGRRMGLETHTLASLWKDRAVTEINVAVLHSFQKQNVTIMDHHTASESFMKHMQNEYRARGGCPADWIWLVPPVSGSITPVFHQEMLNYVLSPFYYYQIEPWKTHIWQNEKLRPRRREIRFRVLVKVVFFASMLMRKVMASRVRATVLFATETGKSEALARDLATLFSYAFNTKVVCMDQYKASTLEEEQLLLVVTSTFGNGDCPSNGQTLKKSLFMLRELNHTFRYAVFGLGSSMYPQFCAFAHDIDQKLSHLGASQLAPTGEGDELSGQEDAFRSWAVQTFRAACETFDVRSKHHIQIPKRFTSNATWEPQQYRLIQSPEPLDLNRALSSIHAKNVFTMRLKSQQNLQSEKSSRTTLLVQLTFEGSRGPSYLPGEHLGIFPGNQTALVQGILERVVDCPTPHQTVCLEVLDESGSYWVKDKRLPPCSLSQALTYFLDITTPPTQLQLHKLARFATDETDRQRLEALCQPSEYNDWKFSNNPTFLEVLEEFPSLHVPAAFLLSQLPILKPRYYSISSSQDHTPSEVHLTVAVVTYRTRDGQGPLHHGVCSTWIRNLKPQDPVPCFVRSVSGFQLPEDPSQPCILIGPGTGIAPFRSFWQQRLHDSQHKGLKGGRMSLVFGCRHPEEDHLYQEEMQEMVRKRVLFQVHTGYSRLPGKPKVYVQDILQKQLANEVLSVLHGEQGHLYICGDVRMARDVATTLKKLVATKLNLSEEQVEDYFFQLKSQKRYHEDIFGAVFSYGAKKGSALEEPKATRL
Procedure: (§1) Phenolic acids and flavonoids used in HPLC analysis as well as all other reagents for biological investigations were obtained from Sigma Chemical Company […]
(§2) Inhibitory activity against key enzymes related to metabolic syndrome (MS) All assays were performed in 96-well plates. Stock solutions of the extract (100 mg/mL), fractions (100 mg/mL), and isolated compounds (1000 µM) were prepared. Tested samples that exceeded […]
(§3) inhibitory concentration (IC50). The percentage of enzyme inhibition was calculated according to […]
(§4) % Inhibition = (A−B) − (C−D) x 100 […]
Inducible nitric oxide synthase (iNOS) inhibitory activity iNOS inhibitory activity was determined in mouse macrophage cells (RAW264.7, Shanghai BOGO Industrial Co., Ltd., China) according to a previously designed method. Phenol red-free RPMI medium from Thermo-Fisher was used to develop macrophages. It was supplemented with 10% bovine calf serum, 100 U/mL of penicillin G sodium from Sigma-Aldrich, and 100 µg/mL of streptomycin (Sigma-Aldrich). Cells (50,000/well) were seeded onto 96-well plates, which were […]

[2] = ABTS radical scavenging antioxidant assay; parameters: ABTS AA (%) antioxidant activity percentage: concentration or dose not given beside the values; conditions: for ABTS antioxidant activity: Trolox equivalent per gram of sample, mean ± SD, n=3; for ABTS AA (%) antioxidant activity percentage: compared to ascorbic acid (=100)
Procedure: all of analytical grade. An electrothermal 9100 (UK) was used for the determination of melting points (uncorrected). A Jenway model 6800 spectrophotometer was utilized for recording UV spectra. A Tecan, microplate reader, ((Infinite F50, Switzerland)) was used to measure the absorbances. A Bruker NMR system was used for 1H-NMR (400 MHz) and 13C-NMR (100 MHz).
The NMR spectra were determined in CD3OH and DMSO-d6. Chemical shifts are given in δ (ppm) relative to the internal standard TMS. Phenolic acids and flavonoids used in HPLC analysis as well as all other reagents for biological investigations were obtained from Sigma Chemical Company […]
Determination of the antioxidant activity
2,2`-Azino-bis(3-ethylbenzothiazoline-6-sulfonic acid) (ABTS), ferric reducing antioxidant power (FRAP), and oxygen radical absorbance capacity (ORAC) assays were performed according to the previously published procedures. Ascorbic acid was used as a reference antioxidant […]
drug. […]

ACE1 = ACE1 (Homo sapiens, UniProt P12821); assay: Angiotensin conversion enzyme (ACE) inhibitory activity (HHL substrate); type: biochemical; conditions: isolated compounds, Table S7; read-out: Inhibition (IC50) ACE1
Procedure: as §1, §2, §3, §4
Pancreatic lipase inhibitory activity […]

xanthine oxidase (XO) = xanthine oxidase (XO) (Bos taurus, UniProt P80457); assay: Xanthine oxidase (XO) inhibitory activity; type: biochemical; conditions: isolated compounds, Table S7; read-out: Inhibition (IC50) XO
Procedure: all of analytical grade. […]
as §1, §2, §3

Chain of xanthine oxidase (XO) (P80457 2-1332): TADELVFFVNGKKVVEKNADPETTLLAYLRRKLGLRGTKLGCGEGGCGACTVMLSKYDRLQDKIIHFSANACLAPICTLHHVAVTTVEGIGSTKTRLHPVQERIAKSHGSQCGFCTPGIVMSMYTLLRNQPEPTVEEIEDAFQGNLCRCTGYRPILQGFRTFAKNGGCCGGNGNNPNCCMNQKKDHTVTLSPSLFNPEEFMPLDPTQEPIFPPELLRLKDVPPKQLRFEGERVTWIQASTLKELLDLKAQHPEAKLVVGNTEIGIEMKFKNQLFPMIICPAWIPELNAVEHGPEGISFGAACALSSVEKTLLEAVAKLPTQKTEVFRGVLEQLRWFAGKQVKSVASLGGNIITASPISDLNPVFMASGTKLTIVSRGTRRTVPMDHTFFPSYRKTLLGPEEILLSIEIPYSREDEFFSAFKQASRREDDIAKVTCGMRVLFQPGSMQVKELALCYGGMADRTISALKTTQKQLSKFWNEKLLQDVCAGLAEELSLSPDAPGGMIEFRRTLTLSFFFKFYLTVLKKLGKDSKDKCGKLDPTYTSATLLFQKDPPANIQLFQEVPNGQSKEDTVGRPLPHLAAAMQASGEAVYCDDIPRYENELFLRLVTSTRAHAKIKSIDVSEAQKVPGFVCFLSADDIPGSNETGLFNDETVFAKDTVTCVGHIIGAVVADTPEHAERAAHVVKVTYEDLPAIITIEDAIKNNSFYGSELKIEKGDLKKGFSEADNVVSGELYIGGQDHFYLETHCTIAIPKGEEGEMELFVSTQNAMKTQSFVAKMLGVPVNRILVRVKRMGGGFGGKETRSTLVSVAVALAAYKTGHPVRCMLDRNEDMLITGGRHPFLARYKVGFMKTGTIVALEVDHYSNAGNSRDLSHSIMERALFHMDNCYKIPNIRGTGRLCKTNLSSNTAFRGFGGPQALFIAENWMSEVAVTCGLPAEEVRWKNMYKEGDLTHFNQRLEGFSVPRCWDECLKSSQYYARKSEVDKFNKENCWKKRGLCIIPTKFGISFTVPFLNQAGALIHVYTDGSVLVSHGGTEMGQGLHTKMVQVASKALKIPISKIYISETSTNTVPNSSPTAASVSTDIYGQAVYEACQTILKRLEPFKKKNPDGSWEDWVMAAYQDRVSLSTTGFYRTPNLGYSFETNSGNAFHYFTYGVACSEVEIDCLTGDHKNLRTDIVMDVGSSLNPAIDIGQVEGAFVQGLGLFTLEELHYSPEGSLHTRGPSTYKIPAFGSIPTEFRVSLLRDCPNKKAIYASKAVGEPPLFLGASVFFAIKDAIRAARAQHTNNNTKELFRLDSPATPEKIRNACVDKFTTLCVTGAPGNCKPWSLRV
Chain of ACE1 (P12821 30-1232): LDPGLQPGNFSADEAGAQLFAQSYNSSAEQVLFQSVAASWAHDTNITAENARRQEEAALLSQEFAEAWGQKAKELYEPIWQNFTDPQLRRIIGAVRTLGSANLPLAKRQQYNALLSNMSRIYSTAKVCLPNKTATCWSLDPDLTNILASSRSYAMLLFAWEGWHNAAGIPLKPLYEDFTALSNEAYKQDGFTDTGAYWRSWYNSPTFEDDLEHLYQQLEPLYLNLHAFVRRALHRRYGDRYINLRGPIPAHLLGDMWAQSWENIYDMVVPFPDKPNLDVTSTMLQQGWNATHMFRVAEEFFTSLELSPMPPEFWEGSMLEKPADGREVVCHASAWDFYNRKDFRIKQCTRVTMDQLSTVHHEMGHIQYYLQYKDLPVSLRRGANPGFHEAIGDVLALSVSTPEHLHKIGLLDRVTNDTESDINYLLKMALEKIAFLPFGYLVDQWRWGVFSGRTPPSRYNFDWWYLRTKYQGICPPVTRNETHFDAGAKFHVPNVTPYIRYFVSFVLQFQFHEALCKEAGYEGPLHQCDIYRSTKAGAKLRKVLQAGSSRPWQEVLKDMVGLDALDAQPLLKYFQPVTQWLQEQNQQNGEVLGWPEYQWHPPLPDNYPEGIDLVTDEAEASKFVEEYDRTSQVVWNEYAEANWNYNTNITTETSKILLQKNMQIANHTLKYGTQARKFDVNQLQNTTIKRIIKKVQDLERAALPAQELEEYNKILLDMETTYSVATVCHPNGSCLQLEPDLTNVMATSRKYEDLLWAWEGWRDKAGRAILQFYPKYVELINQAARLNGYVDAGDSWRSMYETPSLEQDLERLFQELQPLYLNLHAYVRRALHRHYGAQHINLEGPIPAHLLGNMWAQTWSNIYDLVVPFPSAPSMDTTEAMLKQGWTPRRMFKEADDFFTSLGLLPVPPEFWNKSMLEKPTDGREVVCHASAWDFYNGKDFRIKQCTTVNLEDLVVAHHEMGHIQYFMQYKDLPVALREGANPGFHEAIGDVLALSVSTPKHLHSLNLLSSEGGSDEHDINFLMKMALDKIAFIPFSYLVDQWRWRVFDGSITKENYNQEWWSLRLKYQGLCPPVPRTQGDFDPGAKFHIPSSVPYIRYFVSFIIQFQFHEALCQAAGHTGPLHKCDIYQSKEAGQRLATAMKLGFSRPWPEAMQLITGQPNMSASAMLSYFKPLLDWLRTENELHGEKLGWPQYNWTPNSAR

SMILES	IC50 [1] [µM]	ABTS antioxidant activity [2] [μM TE/g]	ABTS antioxidant activity ([2]; listed as Cinnamic acid (P6)) [μM TE/g]	ABTS AA (%) antioxidant activity percentage [2] [%]	IC50 (ACE1) [µM]	IC50 (xanthine oxidase (XO)) [µM]
O=C(/C=C/c1ccc(O)c(O)c1)O[C@@H]1C[C@](O)(C(=O)O)C[C@@H](O)[C@H]1O [P4, chlorogenic acid]	4.79 ± 0.89	–	–	–	–	–
O=C(O)/C=C/c1ccccc1 [P6, cinnamic acid]	4.76 ± 0.25	250.28±0.21	250.28 ± 0.21	86.97	–	–
COc1cc(-c2oc3cc(O)cc(O)c3c(=O)c2O[C@@H]2O[C@H](CO)[C@@H](O)[C@H](O)[C@H]2O)ccc1O [P3, isorhamnetin-3-O-β-D-glucopyranoside]	4.89 ± 0.78	229.71±0.38	–	79.82	0.31 ± 0.86	3.56 ± 0.83
C[C@@H]1O[C@@H](OC[C@H]2O[C@@H](Oc3c(-c4ccc(O)c(O)c4)oc4cc(O)cc(O)c4c3=O)[C@H](O)[C@@H](O)[C@@H]2O)[C@H](O)[C@H](O)[C@H]1O [P1, rutin]	4.99 ± 1.94	180.29±1.08	–	62.64	–	–
O=c1c(O[C@@H]2O[C@H](CO)[C@@H](O)[C@H](O)[C@H]2O)c(-c2ccc(O)c(O)c2)oc2cc(O)cc(O)c12 [P2, isoquercitrin]	4.8 ± 0.99	240.75±0.28	–	83.66	–	–
